Data: US7811760B2, “Vector and method for detecting the change in transcription amount” (priority 2006, dated 2010)

Biological target: T1, C57/BL6-line mouse AhR (Mus musculus, UniProt P30561)
T1 construct: The AhR gene-coding region of the C57/BL6-line mouse was amplified from the reverse-transcribed sample by means of PCR; expressed in transfected cells; host or cells: mouse neuroblastoma Neuro2a, transient transfection with LIPOFECTAMINE 2000
T1 sequence (P30561 10-805 M324I/F348L/P471L/N533S/M589L/T758A limits assumed): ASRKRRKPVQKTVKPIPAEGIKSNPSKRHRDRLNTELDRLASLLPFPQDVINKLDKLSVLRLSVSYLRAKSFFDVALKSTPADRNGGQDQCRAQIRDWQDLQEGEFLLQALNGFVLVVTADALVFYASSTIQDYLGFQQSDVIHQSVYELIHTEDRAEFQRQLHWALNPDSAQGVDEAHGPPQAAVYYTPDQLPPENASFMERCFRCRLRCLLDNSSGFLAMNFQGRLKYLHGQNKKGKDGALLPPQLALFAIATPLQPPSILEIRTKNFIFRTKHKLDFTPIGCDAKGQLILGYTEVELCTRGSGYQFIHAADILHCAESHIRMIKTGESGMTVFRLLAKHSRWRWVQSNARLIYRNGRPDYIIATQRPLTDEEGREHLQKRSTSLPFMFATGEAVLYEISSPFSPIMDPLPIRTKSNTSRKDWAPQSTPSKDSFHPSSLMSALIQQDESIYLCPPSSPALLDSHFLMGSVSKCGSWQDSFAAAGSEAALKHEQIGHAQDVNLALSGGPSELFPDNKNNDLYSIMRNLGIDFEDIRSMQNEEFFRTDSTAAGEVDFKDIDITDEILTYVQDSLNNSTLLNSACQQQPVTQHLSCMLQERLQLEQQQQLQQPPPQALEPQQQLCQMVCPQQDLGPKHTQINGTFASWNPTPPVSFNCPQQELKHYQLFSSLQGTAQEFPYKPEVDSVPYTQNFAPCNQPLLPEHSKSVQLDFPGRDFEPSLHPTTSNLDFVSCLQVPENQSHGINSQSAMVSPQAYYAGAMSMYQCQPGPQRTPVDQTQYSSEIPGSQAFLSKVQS
Assay: Reporter gene assay in Neuro2a with pTHE100×3/Luc and PGV-mAhR
Type: cell-based
Conditions: 1 to 10,000 pM TCDD
Text: In Example 8, the vector pTHE100×3/Luc (Example 7, FIG. 7A) was used as the vector containing a reporter gene, and Neuro2a was used as the cell.
In this Example, a combination of pcDNA4-rAhR (Example 1) containing the SD-line rat AhR gene and pcDNA4/V5-His/lacZ (Invitrogen), as well as a combination of PGV-mAhR (Example 1) containing the C57/BL6-line mouse AhR gene and pcDNA4/V5-His/lacZ were used as the vectors for introducing into the cell together with pTHE100×3/Luc. pcDNA4-rAhR was introduced into the cell for constitutive expression of the SD-line rat AhR (SEQ ID No: 10); PGV-mAhR was introduced into the cell for constitutive expression of C57/BL6-line mouse AhR (SEQ ID No: 11); and pcDNA4/V5-His/lacZ was introduced into the cell for normalization of the transfection efficiency of the vector.
The vectors were introduced into the cell by using LIPOFECTAMINE 2000, similarly to the method described in Example 3. After the above vectors were introduced into the cell, the obtained cell was exposed to 1 to 10,000 pM of TCDD to examine the increase in expression amount of the reporter gene in response to TCDD.

Clc1cc2c(cc1Cl)Oc1cc(Cl)c(Cl)cc1O2 [TCDD, 2,3,7,8-tetrachlorodibenzo-p-dioxine]
induction of transcription of the reporter gene in response to TCDD: effective in inducing transcription of the reporter gene
